For one data set, the system named is A375 cells. Kind of data set: Evaluation of cell cycle arrest (propidium iodide, flow cytometry). The format is cell-based, human. Conditions: 24 hr. The protocol: A375 cells were plated in 96-well microplates at 10,000 cells/200 μl/well. […] After another 24 hr, cells were trypsinized, fixed in 200 μl Prefer (Anatech, Battle Creek, Mich.), and stored at 4° C. overnight. Cells were then rinsed in PBS, permeabilized and stained in 0.1% Triton X-100, 200 μg/ml DNase-free RNase, and […] propidium iodide (Molecular Probes, Sunnyvale, Calif.), and analyzed on the Guava PCA-96 (Guava Technologies, Foster City, Calif.). Data were analyzed using ModFit LT (version 3.0, Verity, Topsham, Me.).
In general terms: In flow cytometry, cells or beads pass a laser one at a time.

Data set [1] in a line: Dynamic vapor sorption/desorption (DVS). The format is physicochemical. Conditions: Form A; 5% to 95% relative humidity. The protocol:
Moisture sorption/desorption data were collected on a VTI SGA-100 Vapor Sorption Analyzer. Sorption and desorption data were collected over a range of 5% to 95% relative humidity (RH) at 10% RH intervals under a nitrogen purge. Samples were not dried prior to analysis. Equilibrium criteria used for analysis were less than 0.0100% weight change in 5 minutes, with a maximum equilibration time of 3 hours if the weight criterion was not met. Data were not corrected for the initial moisture content of the samples. Sodium chloride and polyvinypyrrolidine were used as calibration standards.

A further data set concerns MDA pERK. Kind of data set: MDA pERK ELISA. The format is cell-based.
Data set [2] relates to COLO 205 human colon carcinoma xenografts. The experiment in a line: Activity against subcutaneous COLO 205 xenografts (Example 118).
Method: Dosing solutions of Compound A were prepared fresh daily by dissolving the required amount of compound in 100% Cremophor EL, and then diluting ten-fold with normal saline. Final dosing solution concentrations were 2.5, 5, 10, or 20 mg/mL, in order to provide respective doses of 25, 50, 100 or 200 mg/kg in a dosing volume of 10 mL/kg. Paclitaxel (Natural Pharmaceuticals, Inc.) was prepared fresh on each day of dosing in a vehicle consisting of 5% ethanol and 5% Cremophor EL in 90% D5W (5% EC vehicle).
Group 1 received the formulation vehicle (10% Cremophor EL in saline), and served as the tumor growth control group. Group 2 received the reference drug paclitaxel administered on its optimal schedule in nude mice (30 mg/kg i.v. qod×5). […] All doses were scaled to the weight of the animal (0.2 mL per 20 grams body weight).
Tumors were measured twice each week using calipers. […] Therefore endpoint tumor size of 800 mm^3 was used for analysis of tumor growth delay (TGD).
[formula] where b is the intercept and m is the slope of the line obtained by linear regression of a log-transformed tumor growth data set.
Another data set relates to Colo205 tumor cells. The experiment in a line: ED50 in Colo205 xenografts (Example 94D). The note with it: Paclitaxel 30 mg/kg IV QODx5, Colo205 xenografts. The format is in vivo, nu/nu mice. From the text: Male nu/nu mice were implanted with Colo205 tumor cells. After 10 days animals were randomized by tumor size (range 126-256 mm^3) and treated with paclitaxel (IV, QODx5), vehicle or Compound A (PO, QDx14).

For data set [3], the system named is human A375 melanoma xenografts.
The subject of data set [4] is Complete Freund's Adjuvant induced arthritis. Kind of data set: Rat adjuvant arthritis inflammation assay. Conditions: 10 mg/kg subcutaneous on days 1 and 4. The format is in vivo, rats. The procedure: In the rat adjuvant induced arthritis model, Complete Freund's Adjuvant (CFA) is injected into the right hind paw of rats to induce pathologies similar to rheumatoid arthritis in humans. Compound A was administered orally for 5 consecutive days at 2, 6, and 20 mg/kg. Dexamethasone at 5 m g/kg was also administered orally for 5 days. Enbrel at 10 mg/kg was administered by subcutaneous injection on days 1 and 4. CFA was injected into the right hind paw one hour after the first dose on day 1. […] Polyarthritis was scored as the presence of swelling in front paws, tail, nose or ear.

[5] abbreviates: Group 2, paclitaxel 30 mg/kg iv qod × 14 per the 39th table (qod×5), n=9.
[6] abbreviates: Group 2: Paclitaxel 30 mg/kg iv qod×5.
[7] abbreviates: Group 2: Paclitaxel 30 mg/kg iv qod×5, n=9.

Where two headings read alike, the source gives them in different places. Marks after values point to notes of the source that are not given here.

Consider `COc1cc(F)c(F)c(Nc2ccc(I)cc2F)c1NS(=O)(=O)C1(C[C@H](O)CO)CC1` [listing 1 of 2 here], for which, in the data set with A375 cells (37 nM), the “Phase % G1” value stood at 74.3%, the “Phase % G2” value was 7.0% and the “Phase % S” value amounted to 18.7%. In addition, in the data set with A375 cells (111 nM), the “Phase % G1” value is given as 84.7%, the “Phase % G2” value came to 3.5% and the “Phase % S” value came to 11.8%.
In the case of `COc1cc(F)c(F)c(Nc2ccc(I)cc2F)c1NS(=O)(=O)C1(C[C@H](O)CO)CC1` [listing 2 of 2 here], the “weight change in DVS” value in data set [1] was “negligible weight change”.
On to `O=S(=O)(Nc1ccc(F)c(F)c1Nc1ccc(-c2ccccc2)cc1F)C1CC1` [Example 0497692], for which the EC50 in the data set with MDA pERK was greater than 200 nM.
Take `CC(=O)c1cccc(-c2ccc(Nc3c(NS(=O)(=O)C4CC4)ccc(F)c3F)c(F)c2)c1` [Example 0499266]: the EC50 with MDA pERK was greater than 200 nM.
Same read-out and setting: next, `CS(=O)(=O)Nc1ccc(-c2ccc(Nc3c(NS(=O)(=O)C4CC4)ccc(F)c3F)c(F)c2)cc1` [Example 0499271]: greater than 200 nM; `O=S(=O)(Nc1ccc(F)c(F)c1Nc1ccc(I)cc1F)c1ccc(-c2nsc(Cl)n2)s1` [Example 0530701]: 100 to 200 nM.
Consider `O=S(=O)(Nc1ccc(F)c(F)c1Nc1ccc(I)cc1F)C1CCNCC1` [Example 0561599], for which the EC50 in the data set with MDA pERK fell in the range of 15 to 100 nM.
The compound `COC(=O)c1ccc(S(=O)(=O)Nc2ccc(F)c(F)c2Nc2ccc(I)cc2F)n1C` [Example 0561608] yielded an EC50 in the data set on MDA pERK of 15 to 100 nM.
Regarding `COC(=O)c1sccc1S(=O)(=O)Nc1ccc(F)c(F)c1Nc1ccc(I)cc1F` [Example 0620926], in the data set on MDA pERK, the EC50 was greater than 200 nM.
Regarding `O=S(=O)(Nc1ccc(F)c(F)c1Nc1ccc(I)cc1F)c1ccsc1` [Example 0620927], in the data set with MDA pERK, the EC50 lay in the range of 15 to 100 nM.
Turning to `CNCCS(=O)(=O)Nc1ccc(F)c(F)c1Nc1ccc(I)cc1F` [Example 0621002], the EC50 in the data set on MDA pERK is 15 to 100 nM.
Regarding `CN(C)CCNCCS(=O)(=O)Nc1ccc(F)c(F)c1Nc1ccc(I)cc1F` [Example 0621016], the EC50 in the data set on MDA pERK lay within 15 to 100 nM.
Regarding `Cn1cc(S(=O)(=O)Nc2ccc(F)c(F)c2Nc2ccc(I)cc2F)c(C(F)(F)F)n1` [Example 0621026], in the data set with MDA pERK, the EC50 fell in the range of 100 to 200 nM.
Still for that read-out and setting: next, `CCN(C)CCS(=O)(=O)Nc1ccc(F)c(F)c1Nc1ccc(I)cc1F` [Example 0621029]: 100 to 200 nM.
In the case of `CC(=O)O[C@H]1C(=O)[C@@]2(C)[C@H]([C@H](OC(=O)c3ccccc3)[C@]3(O)C[C@H](OC(=O)[C@H](O)[C@@H](NC(=O)c4ccccc4)c4ccccc4)C(C)=C1C3(C)C)[C@]1(OC(C)=O)CO[C@@H]1C[C@@H]2O` [paclitaxel, reference compound], in data set [2] (Group 2, 30 mg/kg i.v. qod×5), the PR responses entry is listed as “Five”. Besides, the MTV in data set [2] (Group 2, 30 mg/kg i.v. qod×5, Day 74) came out at 143 mm^3. Besides, in data set [2] (setting [5]), the “% TGD” value came out at 46%, the “MTV (n) Day 74” value is given as 0 (3), the “Median TTE” value was determined as 60.0 days and the “No of CR” value stood at 0. Also, in data set [2] (setting [5]), the “No of NTR (non-treatment-related deaths)” value is 2, the “No of PR” value was 1, the “No of TFS” value came to 0 and the “No of TR (treatment-related deaths)” value is reported as 2. Moreover, in data set [2] (setting [5]), the “SS (statistical significance, logrank vs Group 1)” value is recorded as “ns” and the “T − C” value turned out to be 19.0 days. The “Day 15 Tumor Volume” value with Colo205 tumor cells is reported as 113 ± 9.6 mm^3. The “% TGI” value in the data set with Colo205 tumor cells (Day 15) was 104* %. Moreover, in data set [3] (Group 2, 30 mg/kg iv qod×5), the “Median TTE” value came out at 28.8 days, the TGD is listed as 26% and the tumor regressions entry is on record as “No tumor regressions”. Also, in data set [3] (setting [6]), the “% TGD” value is listed as 26%, the “Median TTE” value is on record as 28.8 days and the “T − C” value was found to be 6.0 days. In data set [3] (setting [7]), the “Regressions CR” value amounted to 0, the “Regressions PR” value came to 0 and the “Regressions TFS” value was 0.
On to enbrel, for which, in data set [4], the “animals without swelling in the tail (polyarthritis scoring)” value is 3 of 6 and the “protection from front paw swelling (polyarthritis scoring)” value is reported as “no animals were protected”.

For orientation: EC50 means the concentration needed to bring the measured effect to its halfway point. Low values mean higher potency in that assay, high ones lower potency in that assay.
